Experiment: Multiple dose study in cancer subjects: treatment-emergent (serious) adverse events
Experimental: 46 subjects with cancer receiving platinum-based therapies were enrolled into 3 cohorts (N=16 in Cohort 1, 14 in Cohort 2, and 16 in Cohort 3). The subjects received the TPO mimetic peptide compound or placebo within 2 hours prior to the platinum-based chemotherapy on Day 1 of the first 2 cycles with a 21-day interval between each cycle. In addition to the Day 1 administration, gemcitabine administration was permitted on Day 8 of each cycle. Other chemotherapy medications were limited to dosing on Day 1 of each cycle only. Subjects were followed up for a total of 4 cycles of chemotherapy. Chemotherapy regimen continued beyond the first 4 cycles as per standard of care therapy. In the first cohort, 12 subjects received 1.5 μg/kg the TPO mimetic peptide compound and 4 subjects received placebo. In the second cohort 10 subjects received 3.0 μg/kg the TPO mimetic peptide compound and 4 subjects received placebo. In the third cohort, 12 subjects received 2.25 μg/kg the TPO mimetic peptide compound and 4 subjects received placebo. […] Therefore, a third cohort at a lower dose (2.25 μg/kg) was added to collect additional safety, tolerability, PD, and PK data.

## Methoxypolyethyleneglycol20000-propionyl-L-Isoleucyl-L-Glutamyl-Glycyl-L-Prolyl-L-Threonyl-L-Leucyl-L-Arginyl-L-Glutaminyl-L-2-Naphthylalanyl-L-Leucyl-L-Alanyl-L-Alanyl-L-Arginyl-Sarcosyl-Ne-(methoxypolyethyleneglycol20000-propionyl-L-Isoleucyl-L-Glutamyl-Glycyl-L-Prolyl-L-Threonyl-L-Leucyl-L-Arginyl-L-Glutaminyl-L-2-Naphthylalanyl-L-Leucyl-L-Alanyl-L-Alanyl-L-Arginyl-Sarcosyl-)-Lysinamide [TPO mimetic peptide compound]
3.0 ug/kg, n of N = 10
  Adverse event: Fatigue: 4
  Adverse event: Febrile neutropenia: 0
  Adverse event: Folliculitis: 0
  Adverse event: Gastrointestinal disorders: 6
  Adverse event: General disorders and administration site conditions: 6
  Adverse event: General physical health deterioration: 0
  Adverse event: Haematocrit decreased: 1
  Adverse event: Headache: 1
  Adverse event: Hemorrhoids: 0
  Adverse event: Hepatobiliary disorders: 0
  Adverse event: Hiccups: 0
  Adverse event: Hyperbilirubinaemia: 0
  Adverse event: Hypersensitivity: 1
  Adverse event: Hypertension: 0
  Adverse event: Hypoalbuminaemia: 0
  Adverse event: Hypocalcaemia: 0
  Adverse event: Hypokalaemia: 0
  Adverse event: Hypomagnesaemia: 0
  Adverse event: Hyponatraemia: 0
  Adverse event: Hypophosphataemia: 0
  Adverse event: Immune system disorders: 1
  Adverse event: Insomnia: 1
  Adverse event: Investigations: 4
  Adverse event: Leukocytosis: 1
  Adverse event: Leukopenia: 2
  Adverse event: Lung abscess: 0
  Adverse event: Lymphopenia: 0
  Adverse event: Metabolism and nutrition disorders: 3
  Adverse event: Mucosal inflammation: 0
  Adverse event: Musculoskeletal and connective tissue disorders: 2
  Adverse event: Nausea: 2
  Adverse event: Neoplasms benign, malignant and unspecified (incl cysts and polyps): 0
  Adverse event: Nervous system disorders: 2
  Adverse event: Neuropathy peripheral: 0
  Adverse event: Neutropenia: 3
  Adverse event: Oedema: 1
  Adverse event: Oedema peripheral: 0
  Adverse event: Pain: 0
  Adverse event: Pain in extremity: 1
  Adverse event: Paraesthesia: 1
  Adverse event: Peripheral motor neuropathy: 0
  Adverse event: Peripheral sensory neuropathy: 0
  Adverse event: Platelet count decreased: 0
  Adverse event: Psychiatric disorders: 1
  Adverse event: Pyrexia: 2
  Adverse event: Rash: 0
  Adverse event: Renal and urinary disorders: 0
  Adverse event: Respiratory failure: 0
  Adverse event: Respiratory, thoracic and mediastinal disorders: 1
  Adverse event: Skin and subcutaneous tissue disorders: 3
  Adverse event: Stomatitis: 0
  Adverse event: Tachycardia: 0
  Adverse event: Thrombocythaemia: 0
  Adverse event: Thrombocytopenia: 2
  Adverse event: Tinnitus: 1
  Adverse event: Vascular disorders: 0
  Adverse event: Vomiting: 2
  Adverse event: Weight decreased: 0
  Serious adverse event: Abdominal pain: 0
  Serious adverse event: Acute myocardial infarction: 0
  Serious adverse event: Anorexia: 0
  Serious adverse event: Atrial fibrillation: 0
  Serious adverse event: Blood and lymphatic system disorders: 0
  Serious adverse event: Blood creatinine increased: 0
  Serious adverse event: Cardiac disorders: 0
  Serious adverse event: Cardiac failure: 0
  Serious adverse event: Dehydration: 0
  Serious adverse event: Dyspnoea: 0
  Serious adverse event: Fatigue: 0
  Serious adverse event: Febrile neutropenia: 0
  Serious adverse event: Gastrointestinal disorders: 0
  Serious adverse event: General disorders and administration site conditions: 0
  Serious adverse event: Hyponatraemia: 0
  Serious adverse event: Investigations: 0
  Serious adverse event: Lung abscess: 0
  Serious adverse event: Metabolism and nutrition disorders: 0
  Serious adverse event: Nausea: 0
  Serious adverse event: Neutropenia: 0
  Serious adverse event: Pain: 0
  Serious adverse event: Pyrexia: 0
  Serious adverse event: Respiratory failure: 0
  Serious adverse event: Respiratory, thoracic and mediastinal disorders: 0
  Serious adverse event: Thrombocythaemia: 0
  Serious adverse event: Thrombocytopenia: 0
  Serious adverse event: Vomiting: 0
  Total no. subjects WITH ADVERSE EVENTS: 9
  Total no. subjects WITH SERIOUS ADVERSE EVENTS: 0
1.5, 2.25, 3.0 μg/kg
  relation of adverse events to dose: did not appear to be related to increasing doses
human, in vivo
  relatedness of all other SAEs to the compound: unrelated
One subject
  relatedness of the SAE thrombocythemia to the compound: very likely

Reference: patent publication US20090311344A1, “Dosing Regimen” (priority 2008, published 2009)
